How the values were obtained:
[1] = tested on: disturbances of the cardiac rhythm (aconitine); assay: Anti-arrhythmic activity in the rat (aconitine-induced cardiac rhythm disturbances); type: in vivo
Procedure: Male rats weighing 300-350 g anesthetized intraperitoneally with 1.20 g/kg of urethane were tracheotomized and subjected to artificial respiration (40-50 breaths of 3 ml/minute). Needles were implanted subcutaneously to record the eletrocardiogram of the rats on the derivation signal DII. The products under test were administered intravenously or orally. Five minutes after the administration of the product intravenously or 1 hour after administration orally, the jugular vein of the rats was perfused with 10 μg/min. of an aconitine solution and the time was noted of the appearance of disturbances of the cardiac rhythm (10 μg of aconitine corresponding to the perfusion of a volume of 0.2 ml of solution. The results were expressed as a percentage of the extension of the time of appearance of the cardiac rhythm disturbances as compared to controls and as a function of the dose of the product under test.

[2] = tested on: mice; assay: Study of the acute toxicity (oral, mice); type: in vivo
Procedure: The lethal doses LD0 were evaluated for the different compounds tested after oral administration to mice.

[3] = tested on: Caudal arteries of rats; assay: Anti-calcic activity in vitro (inhibition of K+ depolarization contraction of caudal arteries of rats); type: cell-based; conditions: rat caudal artery spirals, 100 mM K+, Ca2+ 0.1 to 3.0 mM, 37° C.; read-out: IC 50 (inhibits by 50% the contraction due to the K+ ions)
Procedure: Caudal arteries of rats were cut into spirals and attached to tension indicators and were kept in tanks of 25 ml of Krebs buffer-sodium bicarbonate (NaCl: 120.8 mM, KCl: 5.9 mM, MgCl2 : 1.2 mM, NaH2 PO4 : 1.2 mM, NaHCO3 : 15.5 mM, glucose: 12.6 mM) at 37° C. gassed with a mixture of O2 : 95%--CO2 --5%. The preparations were depolarized by a buffer solution with a concentration of 100 mM of K^+ ions (NaCl: 26.7 mM, KCl: 100 mM, MgCl2 1.2 mM, NaH2 PO4 : 1.3 mM, NaHCO3 : 15.5 mM, glucose: 12.6 mM).
250 μl of solutions of calcium chloride were added so that an increasing range of concentrations of Ca^2+ ions going from 0.1 to 3.0 mM was obtained. The contractions of the arteries were recorded and in this way a control range was established. The operation was repeated with the range of Ca^2+ ions every 15 minutes, and the preparation was washed four times after each range. When a stable response was obtained, the operation was carried out with the ranges of Ca^2+ ions in the presence of different concentrations of the product under test until a stable response was obtained.
The contractions of the arteries depend on the entry of the Ca^2+ ions into the cells of the smooth muscles and they are caused by the depolarization of the smooth muscle by the K^+ ions by the action of the noradrenaline liberated at the presynaptic level. By repeating the operation with the arteries denervated by the action of 6-OH dopamine, the action due to the noradrenaline alone is suppressed.
The results are expressed in IC 50 (inhibiting concentration 50) which is the concentration of the product under test which inhibits by 50% the contraction due to the K^+ ions.

[4] = IV, 0.5 mg/kg, aconitine five minutes after administration
[5] = oral, 10 mg/kg, aconitine 1 hour after administration
[6] = IV, 2.5 mg/kg, aconitine five minutes after administration

Row | SMILES | % extension of time of appearance of cardiac rhythm disturbances [1, 4] [%] | LD0 (maximum dose which does not cause any mortality in 8 days) [2] [mg/kg] | IC50 [3] [nM] | also measured
1 | CC(C)(C)NCC(O)COc1ccccc1C(=O)CCc1cccc2[nH]ccc12 (stereo not shown) [Example 1, (E) butenedioate (1,2) of 1-[2-[3-(1,1-dimethylethylamino)-2-hydroxypropoxy]-phenyl]-3-(1H-indol-4-yl)-1-propanone] | 28 | 100 | 400 | % extension of time of appearance of cardiac rhythm disturbances ([1]; oral, 5 mg/kg, aconitine 1 hour after administration): 41%; % extension of time of appearance of cardiac rhythm disturbances [1, 5]: 39%; % extension of time of appearance of cardiac rhythm disturbances ([1]; oral, 25 mg/kg, aconitine 1 hour after administration): 142%
2 | CCCNCC(O)COc1ccccc1C(=O)CCc1cccc2[nH]ccc12 (stereo not shown) [Example 2, (E) butenedioate (1,2) 1-[2-[2-hydroxy-3-propylamino-propoxy]-phenyl]-3-(1H-indol-4-yl)-1-propanone] |  | 100 | 3800 | % extension of time of appearance of cardiac rhythm disturbances ([1]; IV, 1 mg/kg, aconitine five minutes after administration): 32%
3 | CC(C)(C)NCC(O)COc1ccccc1C(=O)CCc1cccc2c1CC(=O)N2 (stereo not shown) [Example 5, 1,3-dihydro-4-[3-[2-[3-(1,1-dimethylethylamino)-2-hydroxypropoxy]-phenyl]-3-oxo-propyl]-2H-indol-2-one] | 66 | > 400 |  | % extension of time of appearance of cardiac rhythm disturbances [1, 5]: 47%
4 | CCCNCC(O)COc1ccccc1C(=O)CCc1cccc2c1CC(=O)N2 (stereo not shown) [Example 6, 1,3-dihydro-4-[3-oxo-3-[2-(2-hydroxy-3-propylamino-propoxy)-phenyl]-propyl]-2H-indol-2-one] |  | 100 | 3600 | % extension of time of appearance of cardiac rhythm disturbances ([1]; IV, 0.25 mg/kg, aconitine five minutes after administration): 31%
5 | CC(C)(C)NCC(O)COc1ccccc1CCCc1cccc2[nH]ccc12 (stereo not shown) [Example 7, 1-(1,1-dimethylethylamino)-3-[2-[3-(1H-indol-4-yl)-propyl]-phenoxy]-2-propanol] |  | > 400 | 640 | % extension of time of appearance of cardiac rhythm disturbances [1, 6]: 41%
6 | CCCNCC(O)COc1ccccc1CCCc1cccc2[nH]ccc12 (stereo not shown) [Example 8, 1-[2-[3-(1H-indol-4-yl)-propyl]-phenoxy]-3-propylamino-2-propanol] |  | > 400 | 1400 | % extension of time of appearance of cardiac rhythm disturbances [1, 6]: 25.5%
7 | CCCNCC(O)COc1ccccc1CCCc1cccc2c1CC(=O)N2 (stereo not shown) [Example 9, 1,3-dihydro-4-[3-[2-[2-hydroxy-3-propylamino-propoxy]-phenyl]-propyl]-2H-indol-2-one] | 45 |  |  | 

Reference: patent US4808609A, “Amino-(hydroxy)alkoxy-4-phenylpropyl indoles having antiarrythmic activity” (Roussel Uclaf, priority 1985, dated 1989)
